Measurements published in patent US12286440B2, “Penam derivative or salt thereof, pharmaceutical composition, and applications thereof” (priority 2018, dated 2025).

The compounds below were run on multidrug-resistant Pseudomonas aeruginosa strain (S-2838 strain) (assay: Test for protection against systemic infection in mouse with multidrug-resistant Pseudomonas aeruginosa). Conditions: sc, 72 h, read-out: survival rate.
Assay type: in vivo, ICR male SPF mice
Procedure: As mice, ICR male SPF mice (4 weeks old: 10 mice per group) were used. Clinically isolated multidrug-resistant Pseudomonas aeruginosa strain (S-2838 strain) cultured overnight on a Mueller-Hinton agar plate at 37° C. was cultured on a cation-adjusted Mueller Hinton medium for 5 hours, and then diluted 20-fold with a 10% mucin/phosphate buffer, thereby preparing an inoculum. An infection was induced by intraperitoneally inoculating the mice with the inoculum at 0.5 mL (about 10^6 CFU/mouse). Each test compound was dissolved in physiological saline, and 1 hour after the infection, the compound was subcutaneously administered once to the mice at 40 mg/kg. The control group was administered with the same amount of physiological saline used as a vehicle. The number of surviving mice was recorded 3 days after the infection.
A test for protection against systemic infection in a mouse with multidrug-resistant Pseudomonas aeruginosa was performed in the same manner as in Test Example 2.
`CC(C)(O/N=C(\C(=O)N[C@@H]1C(=O)N2C[C@@](C(=O)O)(N3CCN(NC(=O)C(=O)c4ccc(O)c(O)c4Cl)C3=O)S[C@H]12)c1csc(N)n1)C(=O)O` [Example 20, (3R,5R,6R)-6-((Z)-2-(2-aminothiazol-4-yl)-2-(((2-carboxypropan-2-yl)oxy)imino)acetamido)-3-(3-(2-(2-chloro-3,4-dihydroxyphenyl)-2-oxoacetamido)-2-oxoimidazolidin-1-yl)-7-oxo-4-thia-1-azabicyclo[3.2.0]heptane-3-carboxylate] gave a responders at 40 mg/kg of no less than 90%. Work on `Nc1nc(/C(=N/OC2(C(=O)O)CC2)C(=O)N[C@@H]2C(=O)N3C[C@@](C(=O)O)(N4CCN(NC(=O)C(=O)c5ccc(O)c(O)c5Cl)C4=O)S[C@H]23)cs1` [Example 21, (3R,5R,6R)-6-((Z)-2-(2-aminothiazol-4-yl)-2-((1-carboxycyclopropoxy)imino)acetamido)-3-(3-(2-(2-chloro-3,4-dihydroxyphenyl)-2-oxoacetamido)-2-oxoimidazolidin-1-yl)-7-oxo-4-thia-1-azabicyclo[3.2.0]heptane-3-carboxylate] yielded a responders at 40 mg/kg of no less than 90%. With `CC(C)(O/N=C(\C(=O)N[C@@H]1C(=O)N2C[C@@](C(=O)O)(N3CCN(NC(=O)C(=O)c4ccc(O)c(O)c4Cl)C3=O)S[C@H]12)c1nc(N)sc1Cl)C(=O)O` [Example 22, (3R,5R,6R)-6-((Z)-2-(2-amino-5-chlorothiazol-4-yl)-2-(((2-carboxypropan-2-yl)oxy)imino)acetamido)-3-(3-(2(2-chloro-3,4-dihydroxyphenyl)-2-oxoacetamido)-2-oxoimidazolidin-1-yl)-7-oxo-4-thia-1-azabicyclo[3.2.0]heptane-3-carboxylate] the responders at 40 mg/kg was no less than 90%. `CC(C)(O/N=C(\C(=O)N[C@@H]1C(=O)N2C[C@@](C(=O)O)(N3CCN(NC(=O)C(=O)c4ccc(O)c(O)c4Cl)C3=O)S[C@H]12)c1nsc(N)n1)C(=O)O` [Example 23, (3R,5R,6R)-6-((Z)-2-(5-amino-1,2,4-thiadiazol-3-yl)-2-(((2-carboxypropan-2-yl)oxy)imino)acetamido)-3-(3-(2-(2-chloro-3,4-dihydroxyphenyl)-2-oxoacetamido)-2-oxoimidazolidin-1-yl)-7-oxo-4-thia-1-azabicyclo[3.2.0]heptane-3-carboxylate] showed a responders at 40 mg/kg of no less than 90%. `Nc1nc(/C(=N/OC2(C(=O)O)CC2)C(=O)N[C@@H]2C(=O)N3C[C@@](C(=O)O)(N4CCN(NC(=O)CCNC(=O)C(=O)c5ccc(O)c(O)c5Cl)C4=O)S[C@H]23)cs1` [Example 31, (3R,5R,6R)-6-((Z)-2-(2-aminothiazol-4-yl)-2-((1-carboxycyclopropoxy)imino)acetamido)-3-(3-(3-(2-(2-chloro-3,4-dihydroxyphenyl)-2-oxoacetamido)propanamido)-2-oxoimidazolidin-1-yl)-7-oxo-4-thia-1-azabicyclo[3.2.0]heptane-3-carboxylate] showed a responders at 40 mg/kg of no less than 90%. For `CC(C)(O/N=C(\C(=O)N[C@@H]1C(=O)N2C[C@@](C(=O)O)(N3CCN(NC(=O)c4cc(Cl)c(O)c(O)c4Cl)C3=O)S[C@H]12)c1csc(N)n1)C(=O)O` [Example 83, (3R,5R,6R)-6-((Z)-2-(2-aminothiazol-4-yl)-2-(((2-carboxypropan-2-yl)oxy)imino)acetamido)-3-(3-(2,5-dichloro-3,4-dihydroxybenzamido)-2-oxoimidazolidin-1-yl)-7-oxo-4-thia-1-azabicyclo[3.2.0]heptane-3-carboxylate], the responders at 40 mg/kg was no less than 90%. `CC[C@H](O/N=C(\C(=O)N[C@@H]1C(=O)N2C[C@@](C(=O)O)(N3CCN(NC(=O)C(=O)c4ccc(O)c(O)c4Cl)C3=O)S[C@H]12)c1csc(N)n1)C(=O)O` [Example 105, (3R,5R,6R)-6-((Z)-2-(2-aminothiazol-4-yl)-2-(((S)-1-carboxypropoxy)imino)acetamido)-3-(3-(2-(2-chloro-3,4-dihydroxyphenyl)-2-oxoacetamido)-2-oxoimidazolidin-1-yl)-7-oxo-4-thia-1-azabicyclo[3.2.0]heptane-3-carboxylate] was tested, and the responders at 40 mg/kg was no less than 90%.
